Reference: PubChem BioAssay AID248 (DTP/NCI, 2004)
Toxic doses and inconclusive results are not listed. Rule as the data show it: active = T/C of 150% or more; inactive = T/C below 125%.

System: L1210 leukemia ip in BDF1 mice, survival T/C
Assay: NCI In Vivo Anticancer Drug Screen. Data for tumor model L1210 Leukemia (intraperitoneal) in B6D2F1 (BDF1) mice
Conditions: endpoint: mean survival time, higher = longer survival
Method in brief: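 Each compound was tested against a transplantable tumor grown in mice. The endpoint was survival, with treated animals benchmarked against vehicle controls as a simple ratio.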

[1] = dose: 100.0 mg/kg/injection, schedule: Q04DX003 (ip), vehicle: Klucel (hydroxypropylcellulose) (HPC)
[2] = dose: 200.0 mg/kg/injection, schedule: Q01DX009 (ip), vehicle: Klucel (hydroxypropylcellulose) (HPC)
[3] = dose: 200.0 mg/kg/injection, schedule: Q04DX003 (ip), vehicle: Klucel (hydroxypropylcellulose) (HPC)
[4] = dose: 400.0 mg/kg/injection, schedule: Q04DX003 (ip), vehicle: Klucel (hydroxypropylcellulose) (HPC)
[5] = dose: 100.0 mg/kg/injection, schedule: Q01DX009 (ip), vehicle: Klucel (hydroxypropylcellulose) (HPC)
[6] = dose: 400.0 mg/kg/injection, schedule: Q01DX009 (ip), vehicle: Klucel (hydroxypropylcellulose) (HPC)
[7] = dose: 100.0 mg/kg/injection, schedule: Q01DX001 (ip), vehicle: saline
[8] = dose: 200.0 mg/kg/injection, schedule: Q01DX001 (ip), vehicle: saline
[9] = dose: 400.0 mg/kg/injection, schedule: Q01DX001 (ip), vehicle: saline
[10] = dose: 100.0 mg/kg/injection, schedule: Q04DX003 (ip), vehicle: saline with Tween-80
[11] = dose: 200.0 mg/kg/injection, schedule: Q04DX003 (ip), vehicle: saline with Tween-80
[12] = dose: 100.0 mg/kg/injection, schedule: Q01DX009 (ip), vehicle: saline with Tween-80
[13] = dose: 100.0 mg/kg/injection, schedule: Q01DX001 (ip), vehicle: carboxymethylcellulose (CMC)
[14] = dose: 200.0 mg/kg/injection, schedule: Q01DX001 (ip), vehicle: carboxymethylcellulose (CMC)
[15] = dose: 400.0 mg/kg/injection, schedule: Q01DX001 (ip), vehicle: carboxymethylcellulose (CMC)
[16] = dose: 100.0 mg/kg/injection, schedule: Q04DX002 (ip), vehicle: Klucel (hydroxypropylcellulose) (HPC)
[17] = dose: 200.0 mg/kg/injection, schedule: Q04DX002 (ip), vehicle: Klucel (hydroxypropylcellulose) (HPC)
[18] = dose: 400.0 mg/kg/injection, schedule: Q04DX003 (ip), vehicle: saline with Tween-80

Measured: T/C

CC1CC(C)CC(NC(=O)NCCCl)C1 (stereo not drawn)
inactive: dose: 20.0 mg/kg/injection, schedule: Q01DX009 (ip), vehicle: Klucel (hydroxypropylcellulose) (HPC) 106 % of control | dose: 40.0 mg/kg/injection, schedule: Q01DX009 (ip), vehicle: Klucel (hydroxypropylcellulose) (HPC) 95 % of control | dose: 80.0 mg/kg/injection, schedule: Q01DX009 (ip), vehicle: Klucel (hydroxypropylcellulose) (HPC) 93 % of control | [1] 103 % of control | [2] 87 % of control | [3] 94 % of control | [4] 92 % of control

O=C1CCC(c2ccccc2)=NN1c1ccccc1
inactive: [5] 96 % of control | [2] 90 % of control | [6] 96 % of control

CC(=O)Nc1ccc(Cc2ccc3[nH]c(C)cc(=O)c3c2)cc1
inactive: [7] 109 % of control | [8] 98 % of control | [9] 93 % of control

O=C(Nc1ccccc1C(F)(F)F)OCCOc1ccc([N+](=O)[O-])cc1
inactive: [1] 89 % of control | [3] 87 % of control | [4] 92 % of control

CC(=O)OCC#CCOC(C)=O
inactive: dose: 50.0 mg/kg/injection, schedule: Q04DX003 (ip), vehicle: saline with Tween-80 100 % of control | [10] 97 % of control | [11] 97 % of control

Fc1cnc(OC23CC4CC(CC(C4)C2)C3)nc1OC12CC3CC(CC(C3)C1)C2
inactive: [1] 86 % of control | [3] 88 % of control | [4] 88 % of control

O=C(CCCC(=O)N/N=C/c1cccc(I)c1)N/N=C\c1cccc(I)c1
inactive: dose: 50.0 mg/kg/injection, schedule: Q01DX001 (ip), vehicle: saline 100 % of control | [7] 100 % of control | [8] 100 % of control | [9] 97 % of control

Cc1ccc(C(C)C)cc1N1C(=O)C2C(C1=O)C1(Cl)C(Cl)=C(Cl)C2(Cl)C1(Cl)Cl (stereo not drawn)
inactive: [5] 92 % of control | [2] 97 % of control | [6] 91 % of control

C/C=C\c1ccc(OCCOC(=O)Nc2c(C)cccc2C)c(OC)c1
inactive: [12] 92 % of control | dose: 200.0 mg/kg/injection, schedule: Q01DX009 (ip), vehicle: saline with Tween-80 89 % of control | dose: 400.0 mg/kg/injection, schedule: Q01DX009 (ip), vehicle: saline with Tween-80 87 % of control

O=C(N/N=C/c1ccc(Cl)cc1Cl)C(O)(c1ccccc1)c1ccccc1
inactive: [13] 111 % of control | [14] 101 % of control | [15] 92 % of control

N#Cc1nnn(-c2ccccc2)n1
inactive: dose: 25.0 mg/kg/injection, schedule: Q01DX009 (ip), vehicle: acetone 101 % of control | dose: 50.0 mg/kg/injection, schedule: Q01DX009 (ip), vehicle: acetone 111 % of control | dose: 50.0 mg/kg/injection, schedule: Q04DX003 (ip), vehicle: acetone 93 % of control | dose: 100.0 mg/kg/injection, schedule: Q01DX001 (ip), vehicle: acetone 99 % of control | dose: 100.0 mg/kg/injection, schedule: Q04DX003 (ip), vehicle: acetone 88 % of control | dose: 200.0 mg/kg/injection, schedule: Q01DX001 (ip), vehicle: acetone 99 % of control

O=c1[nH]c(=S)[nH]cc1Cc1cccc2ccccc12
inactive: dose: 25.0 mg/kg/injection, schedule: Q01DX001 (ip), vehicle: Klucel (hydroxypropylcellulose) (HPC) 104 % of control | dose: 50.0 mg/kg/injection, schedule: Q01DX001 (ip), vehicle: Klucel (hydroxypropylcellulose) (HPC) 94 % of control | dose: 100.0 mg/kg/injection, schedule: Q01DX001 (ip), vehicle: Klucel (hydroxypropylcellulose) (HPC) 92 % of control

C=CCNC(=S)NNC(=O)c1ccncc1
inactive: [5] 107 % of control | [2] 108 % of control | [6] 104 % of control

CCCCCCCCCCCCCCCCc1ccc(O)cc1O
inactive: dose: 12.5 mg/kg/injection, schedule: Q04DX003 (ip), vehicle: Klucel (hydroxypropylcellulose) (HPC) 103 % of control | dose: 25.0 mg/kg/injection, schedule: Q01DX009 (ip), vehicle: saline with Tween-80 100 % of control | dose: 25.0 mg/kg/injection, schedule: Q04DX003 (ip), vehicle: Klucel (hydroxypropylcellulose) (HPC) 95 % of control | dose: 50.0 mg/kg/injection, schedule: Q01DX009 (ip), vehicle: saline with Tween-80 105 % of control | dose: 50.0 mg/kg/injection, schedule: Q04DX003 (ip), vehicle: Klucel (hydroxypropylcellulose) (HPC) 95 % of control | [12] 95 % of control | [10] 94 % of control

Cc1ccc(NC(=O)N2CC2(C)C)cc1NC(=O)N1CC1(C)C
inactive: [1] 121 % of control | [3] 116 % of control | dose: 265.0 mg/kg/injection, schedule: Q04DX003 (ip), vehicle: Klucel (hydroxypropylcellulose) (HPC) 120 % of control | [4] 111 % of control | dose: 600.0 mg/kg/injection, schedule: Q04DX003 (ip), vehicle: Klucel (hydroxypropylcellulose) (HPC) 94 % of control

c1ccc(N=C(Nc2ccccc2)c2ccccc2)cc1
inactive: [16] 103 % of control | [10] 94 % of control | [17] 111 % of control | [11] 91 % of control | [18] 92 % of control

CC12CCC(C1)C(C)(C)/C2=N\O (stereo not drawn)
inactive: [5] 96 % of control | [16] 100 % of control | [2] 88 % of control | [17] 96 % of control | [6] 92 % of control | dose: 400.0 mg/kg/injection, schedule: Q04DX002 (ip), vehicle: Klucel (hydroxypropylcellulose) (HPC) 96 % of control

CCCCCCc1cc(OC(=O)c2ccccc2)ccc1OC(=O)c1ccccc1
inactive: dose: 50.0 mg/kg/injection, schedule: Q01DX001 (ip), vehicle: carboxymethylcellulose (CMC) 94 % of control | [13] 97 % of control | [14] 89 % of control | [15] 97 % of control

O=[N+]([O-])c1ccc(-c2cnc(Nc3ccc(Cc4ccc(Nc5ncc(-c6ccc([N+](=O)[O-])cc6)s5)c(Cl)c4)cc3Cl)s2)cc1
inactive: [1] 98 % of control | [3] 106 % of control | [4] 98 % of control

COc1ccc(NC(=O)Nc2ccc(Cl)cc2OC)cc1
inactive: dose: 25.0 mg/kg/injection, schedule: Q04DX002 (ip), vehicle: saline with Tween-80 93 % of control | dose: 50.0 mg/kg/injection, schedule: Q04DX002 (ip), vehicle: saline with Tween-80 96 % of control | dose: 100.0 mg/kg/injection, schedule: Q04DX002 (ip), vehicle: saline with Tween-80 89 % of control

CCC(C#N)C1C=CCCC1 (stereo not drawn)
inactive: dose: 75.0 mg/kg/injection, schedule: Q01DX001 (ip), vehicle: other 107 % of control | dose: 150.0 mg/kg/injection, schedule: Q01DX001 (ip), vehicle: other 107 % of control

CNCCc1ccc2cc(OC)c(OC)cc2c1
inactive: [10] 91 % of control

CC(=O)c1c(C)[nH]c2ccccc12
inactive: dose: 100.0 mg/kg/injection, schedule: Q01DX001 (ip), vehicle: saline with Tween-80 101 % of control | [10] 95 % of control | dose: 200.0 mg/kg/injection, schedule: Q01DX001 (ip), vehicle: saline with Tween-80 103 % of control | [11] 95 % of control | dose: 400.0 mg/kg/injection, schedule: Q01DX001 (ip), vehicle: saline with Tween-80 97 % of control | [18] 95 % of control

O=C1C(c2ccccc2)=C(N2CCCCC2)C(=O)C(c2ccccc2)=C1N1CCCCC1
inactive: [13] 90 % of control | [14] 90 % of control | [15] 94 % of control

O/N=C(/C(=N/O)c1ccccc1)c1ccccc1.O/N=C(/C(=N/O)c1ccccc1)c1ccccc1.[Cl][Rh][Cl]
inactive: dose: 50.0 mg/kg/injection, schedule: Q01DX009 (ip), vehicle: saline 94 % of control | dose: 50.0 mg/kg/injection, schedule: Q04DX003 (ip), vehicle: saline 95 % of control | dose: 100.0 mg/kg/injection, schedule: Q01DX009 (ip), vehicle: saline 89 % of control | dose: 100.0 mg/kg/injection, schedule: Q04DX003 (ip), vehicle: saline 95 % of control | dose: 200.0 mg/kg/injection, schedule: Q01DX009 (ip), vehicle: saline 95 % of control | dose: 200.0 mg/kg/injection, schedule: Q04DX003 (ip), vehicle: saline 94 % of control | dose: 400.0 mg/kg/injection, schedule: Q01DX009 (ip), vehicle: saline 97 % of control | dose: 400.0 mg/kg/injection, schedule: Q04DX003 (ip), vehicle: saline 94 % of control

Nc1nc(CNc2ccc(Cl)cc2)nc(Nc2ccccc2)n1
inactive: [10] 93 % of control | [11] 89 % of control | [18] 89 % of control
